This series is described as follows: Measurement of logP values by HPLC on reversed phase columns (EEC directive 79/831 Annex V.A8). It counts as physicochemical. The settings on record: pH 2.7, 0.1% formic acid in water / acetonitrile gradient 10% to 95%; for chromatographic logP: reversed phase HPLC column, read-out: Log p.

From US20100286173A1 (priority 2008, published 2010) come the findings set out here.

With `Cc1cc(C(=NOCc2csc(NCC3CC3)n2)c2nnnn2C)ccc1F` [Example 154, N-(cyclopropylmethyl)-4-[({[(4-fluoro-3-methylphenyl)(1-methyl-1H-tetrazol-5-yl)methylidene]amino}oxy)methyl]-1,3-thiazol-2-amine], the chromatographic logP turned out to be 2.71.

Molecule `Cc1cc(C(=NOCc2csc(C#CCCCc3ccccc3)n2)c2nnnn2C)ccc1F` [Example 155] displayed a Log p of 5.32.

Consider `CCC#Cc1nc(CON=C(c2ccc(F)c(C)c2)c2nnnn2C)cs1` [Example 156], for which the Log p stood at 4.09. Still for that read-out and setting: next, `Cc1cc(C(=NOCc2cccc(N)n2)c2nnnn2C)ccc1F` [Example 159]: 1.50. Take `Cc1cc(C(=NOCc2csc(Br)n2)c2nnnn2C)ccc1F` [Example 161, N-[(2-bromo-1,3-thiazol-4-yl)methoxy]-1-(4-fluoro-3-methylphenyl)-1-(1-methyl-1H-tetrazol-5-yl)methanimine]: the chromatographic logP is 3.57.

`Cc1ccc(C(=NOCc2cccc(N)n2)c2nnnn2C)cc1C(F)(F)F` [Example 162]: the Log p amounted to 2.10.

Turning to `Cc1cc(C(=NOCc2csc(N)n2)c2nnnn2C)ccc1F` [Example 163], the Log p turned out to be 1.75.
